The values that follow come from patent US20220160812A1, “A PHARMACEUTICALLY ACTIVE SUBSTANCE” (Cytopharma GmbH, priority 2019, published 2022).

In experiment [1] the test system is BxPC-3 human pancreatic cancer cells. The experiment in a line: subG1 cell cycle FACS apoptosis assay, BxPC-3 cells. Particulars: BxPC-3, Protocol B, about 24 hours; for apoptosis-inducing activity (subG1) relative to peptides SEQID No 28 and SEQID No 27: SEQID No 41 at 50 μM versus monomeric peptides at 100 μM, FIG. 19. Format: cell-based. As to the method:
(§1) To transfer adherent cells (A375 and BxPC-3 cells) after culture, cells are washed twice with PBS. To detach the cells, the enzyme biotase is used according to the manufacturer's instructions. For this purpose, after washing with PBS, the cells are mixed with biotase (5 ml of biotase solution per 75 cm^2 surface of the cell culture bottles) and incubated for 5 min at 37 degrees Celsius, and the biotase is separated by centrifugation. Cells cultivated in suspension (MEC-1 and lymphocytes) were transferred by dilution. The cells are suspended in culture medium and counted, each time 1.5×10^5 cells/cm^2 are seeded in 48-well plates and cultured for between 1.5 and 24 hours at 37 degrees Celsius, 5% CO2. Peptides are pre-diluted from stock solution with culture medium and 200 μl of peptide solution added so that final concentrations of 30 to 500 μM peptide are present in at most 1% (v/v) DMSO. As control solutions, culture medium without peptide (DMSO-containing) in culture medium or etoposide solution is added. After incubating the cells for several hours, the cell supernatant is transferred to a FACS tube for each batch and, after washing the cells with PBS, the wash solution is added. Then the cells are incubated with 200 μl of biotase solution for 10 min, 37° C., the cells with the biotase are also transferred to the FACS tube and the cells are collected by centrifugation for 5 min. The cell pellet is suspended in 500 μl of serum-free culture medium, then 1.5 ml of cold 80% ethanol (ethanol/PBS-80/20, v/v, stored at −20° C.) is added, the FACS tubes sealed and stored at −20 degrees Celsius for 15 to 18 h. Thereafter, the cells are centrifuged for 5 minutes at 120 g, suspended after removal of the supernatant in 2 ml PBS and incubated at 37 degrees Celsius for 30 minutes. After re-centrifugation, the cells are suspended in 0.5 ml DAPI solution and incubated for 15 min at 20 degrees Celsius in the dark. Thereafter, the cells are stored dark for a maximum of four hours in an ice bath, followed by the FACS analysis.
The adherent cells (A375 and BxPC-3 cells and MDA-MB-231, respectively) are seeded 24 hours before induction in 6-well plates in culture medium. For this, the cells are washed with PBS, then incubated with trypsin/EDTA solution at 37 degrees Celsius and suspended in culture medium. The 6-well plates are loaded with 1×10^5 cells/cm^2 in culture medium and the cells incubated for 24 hours until induction with the peptides in the incubator. For induction, the peptides are diluted in fresh culture medium. As control solutions, culture medium without peptide (DMSO-containing) in culture medium or etoposide solution is added. The cells are washed with PBS. Thereafter the peptide solution in culture medium is added to the cells. After incubation in the incubator (37° C., 5% CO2) between 1.5 and 24 hours, the cell supernatant is transferred to 15 ml centrifuge tubes, the cells are washed with 0.75 ml PBS and then with 0.5 ml versene solution. Both washings are combined with the cell supernatant. The cells are then added with 0.5 ml of trypsin/EDTA solution and incubated at about 37° C. for at most 10 minutes until the cells detached. The cell suspension is combined with cell supernatant and washings and centrifuged at about 130 g for about 10 minutes. After removing the supernatant, the cells are suspended in 400 μl of cell culture medium (without serum) and mixed with 1.2 ml of 80% ethanol/20% PBS (v/v) and incubated for 1 to 7 days at −20° C. For analysis, the cells are centrifuged at 130 g for 10 min, suspended in 2 ml PBS, and centrifuged again for 5 min. The cells are suspended in 700 μl PI buffer and incubated for 10 min at 37° C. in the dark. Subsequently, the cells are stored dark for a maximum of four hours in an ice bath, then the FACS analysis is performed. […]

A further experiment deals with A375 melanoma cells. The experiment in a line: subG1 cell cycle FACS apoptosis assay, A375 melanoma cells. Format: cell-based, human. Particulars: A375, Protocol B, 100 μM, about 24 hours, FIG. 2. Here is the method: as §1
(§2) The adherent cells (A375 and BxPC-3 cells and MDA-MB-231, respectively) are seeded 24 hours before induction in 6-well plates in culture medium. For this, the cells are washed with PBS, then incubated with trypsin/EDTA solution at 37 degrees Celsius and suspended in culture medium. The 6-well plates are loaded with 1×10^5 cells/cm^2 in culture medium and the cells incubated for 24 hours until induction with the peptides in the incubator. For induction, the peptides are diluted in fresh culture medium. As control solutions, culture medium without peptide (DMSO-containing) in culture medium or etoposide solution is added. The cells are washed with PBS. Thereafter the peptide solution in culture medium is added to the cells. After incubation in the incubator (37° C., 5% CO2) between 1.5 and 24 hours, the cell supernatant is transferred to 15 ml centrifuge tubes, the cells are washed with 0.75 ml PBS and then with 0.5 ml versene solution. Both washings are combined with the cell supernatant. The cells are then added with 0.5 ml of trypsin/EDTA solution and incubated at about 37° C. for at most 10 minutes until the cells detached. The cell suspension is combined with cell supernatant and washings and centrifuged at about 130 g for about 10 minutes. After removing the supernatant, the cells are suspended in 400 μl of cell culture medium (without serum) and mixed with 1.2 ml of 80% ethanol/20% PBS (v/v) and incubated for 1 to 7 days at −20° C. For analysis, the cells are centrifuged at 130 g for 10 min, suspended in 2 ml PBS, and centrifuged again for 5 min. The cells are suspended in 700 μl PI buffer and incubated for 10 min at 37° C. in the dark. Subsequently, the cells are stored dark for a maximum of four hours in an ice bath, then the FACS analysis is performed.
The proportion of cells which have died was determined by two methods, both rely on the analysis of cells by flow cytometry, often called FACS analysis. […]

For experiment [2], the system named is human breast carcinoma cells (MDA-MB-231). The experiment in a line: subG1 cell cycle FACS apoptosis assay, MDA-MB-231 cells. The class given is cell-based. Particulars: about 24 hours; for apoptosis-inducing activity (subG1) relative to peptides SEQID No 28 and SEQID No 1: MDA-MB-231, SEQID No 41 at 50 μM versus monomeric peptides at 100 μM, FIG. 18. As to the method:
as §2
The second method analyzes the cell cycle phases which is drawn from the relative DNA content. Cells labeled by a fluorescent dye, using either DAPI or propidium iodide (PI) were analyzed by a cell sorter. The protocols for cell cultivation, treatment and preparation and staining of the cells for the flow cytometry is given in separate examples. […] When cells die by apoptosis, cellular changes lead to diminished DNA content resulting in a new peak located before the G0/G1 peak, often called “subG1” peak (Broecker-Preuss et al. 2015; Darzynkiewicz et al., 1992; Dbaibo et al. 1998; Fischbeck et al. 2011).
The “Flowing Software 2” program is used to draw from the raw data of the flow cytometer an FSC/SSC plot. This first step is performed in order to analyze a selected cell fraction excluding cells with both small FSC and small SSC values. Therefore, a gating area is drawn in a two-dimensional FSC/SSC plot (region R-1) which contains mainly intact cells, but no small vesicles. This is initially done for each cell type using reference cells which were not incubated with substances inducing cell death. By this selection of the cell fraction, a bias is prevented which would include a very high number of small cellular vesicles (apoptotic bodies) that are formed by membrane blebbing from dying cells, which have a low DNA content but which, by their large number, would increase the fraction of presumptive subG1 cells. […] In this DNA content plot, an analytical region is drawn in the area of lower DNA content to count the cells that show a subG1 peak, as illustrated in FIG. 1. The fraction of apoptotic cells is defined as the fraction of cells with DNA content in the subG1 region as part of the total number of cells in the DNA content plot (FIG. 1).
The evaluation of the FACS analysis to determine the subG1 data was also carried out with the program Flowing Software, version 2.5.1. The fluorescence in the respective analysis channel for DAPI or propidium iodide was plotted as a histogram, the data from the respectively defined region R-1 being utilized (see FIG. 1). […]

“Also recorded” adds a separate entry of the source.

Regarding k-w-m-v-v-y-f-r [SEQID No 9], in experiment [1] (100 μM, FIG. 14), the “apoptosis efficiency (subG1) in view of Peptide SEQ C1” value is “at least fourfold”; the “apoptosis efficiency (subG1) in view of Peptide SEQ No 12” value is on record as “at least threefold”; the “apoptosis induction (subG1), comparison in words” value (“apoptosis induction (subG1)” below) was “stronger apoptosis induction compared to SEQ C1; also recorded: strongly improved activity compared to peptide SEQID No 1”. In addition, the “apoptosis efficiency (subG1), comparison in words” value with A375 melanoma cells is reported as “extraordinary increased activity compared to peptide SEQ C1”.
r-s-t-q-k-w-m-v-v-y-f-r-k [SEQID No 40]: the “apoptosis efficiency (subG1), comparison in words” value in experiment [1] (100 μM, FIG. 17) is “weaker activity”. The “apoptosis-inducing activity (subG1), comparison in words” value (“apoptosis-inducing activity … in words” for short) in experiment [2] (MDA-MB-231, 100 μM, FIG. 16, listed as SEQID 40) was “slightly smaller efficiency than SEQID No 33”.
As to m-v-v-y-f-r-w [SEQID No 3], the “apoptosis induction (subG1)” value in experiment [1] (100 μM, FIG. 14) is listed as “stronger apoptosis induction compared to SEQ C1”. Moreover, the “apoptosis-inducing activity … in words” value in experiment [2] (MDA-MB-231, 200 μM, FIG. 13) was “increased apoptosis-inducing activity compared to the peptide SEQ C1”.
On to m-v-v-y-f-r-k [SEQID No 4], for which the “apoptosis-inducing activity … in words” value in experiment [2] (MDA-MB-231, 200 μM, FIG. 13) is recorded as “increased apoptosis-inducing activity compared to the peptide SEQ C1”.
Regarding q-k-w-m-v-v-y-f-r-k [SEQID No 28], the “apoptosis-inducing activity … in words” value in experiment [2] (MDA-MB-231, 100 μM, FIG. 15) is on record as “higher apoptosis-inducing activity”; in experiment [2] (MDA-MB-231, 100 μM, FIG. 15, listed as SEQID NO 28), “improvement over SEQID NO 27”.
w-m-v-v-y-f-r [SEQID No 1]: the “apoptosis induction (subG1)” value in experiment [1] (100 μM, FIG. 14) was “stronger apoptosis induction compared to SEQ C1”. The “apoptosis-inducing activity … in words” value in experiment [2] (MDA-MB-231, 200 μM, FIG. 13) is reported as “increased apoptosis-inducing activity compared to the peptide SEQ C1”.
On to “k-k-w-m-v-v-y-f-r-k-s-g-s-g-s-k-k-w-m-v-v-y-f-r-k [SEQID No 41]”, for which the “apoptosis-inducing activity (subG1) relative to peptides SEQID No 28 and SEQID No 27” value in experiment [1] is “at least double”; in experiment [1] (listed as dimeric peptide) it was “more than two-fold”. Besides, the “apoptosis-inducing activity (subG1) relative to peptides SEQID No 28 and SEQID No 1” value in experiment [2] is “at least double”; in experiment [2] (listed as dimeric peptide) it was “more than two-fold”.
In the case of “r-a-s-k-s-q-t-v-k-k-w-m-v-v-y-f-r-k-s-a-r [SEQID No 35]”, in experiment [1] (100 and 200 μM, Examples 107-110), the “apoptosis efficiency (subG1), in words” value is recorded as “slightly higher apoptosis than the peptide sequence SEQID NO 33; also recorded: considerable efficiency to induce apoptosis in pancreatic cancer cells”.
For the substance k-m-v-v-y-f-r [SEQID No 2], the “apoptosis induction (subG1)” value in experiment [1] (100 μM, FIG. 14) is listed as “stronger apoptosis induction compared to SEQ C1”. In experiment [2] (MDA-MB-231, 200 μM, FIG. 13), the “apoptosis-inducing activity … in words” value is listed as “increased apoptosis-inducing activity compared to the peptide SEQ C1”.
w-w-m-v-v-y-f-r [SEQID No 12]: the “apoptosis induction (subG1)” value in experiment [1] (100 μM, FIG. 14) is “stronger apoptosis induction compared to SEQ C1”. Besides, in experiment [2] (MDA-MB-231, 200 μM, FIG. 13), the “apoptosis-inducing activity … in words” value is listed as “slightly decreased activity compared to peptide SEQID No 1; also recorded: remarkably improved efficiency than SEQ C1”.
